Measurements reported in patent publication US20090012152A1, “Use of Tetramic Acid Derivatives for Controlling Insects from the Genus of the Plane Lice (Sternorrhyncha)” (Bayer CropScience Aktiengesellschaft, priority 2005, published 2009).

Tests used:
Format in all cases: in vivo
[1] = system: Pulvinaria aethiopicus; assay: Example 10: mandarin trees treated against Pulvinaria aethiopicus; settings: 45 days after last of two treatments, on fruits, % a.i.: mineral oil 0.251 + pyriproxifen 0.003, I-9 0.0096, I-2 0.0144
Experimental: In three replications, about 6-year-old mandarin trees of the cultivar “Naartje” are treated against Pulvinaria aethiopicus. Two applications are carried out at an interval of 32 days as irradication treatment using a knapsack operated with pressurized air. Here, the active compounds Example (I-9) (240 SC) and Example (I-2) (240 SC) are tested against a commercial tank mix of a mineral oil (835 EC) which is commercially available in South Africa and customarily used in this country and pyriproxifen (100 EC) at the stated amounts. The application rate is 8.3 l of water/tree.
Evaluation is carried out 45 days after the last treatment by rating the kill in percent on the fruits.

[2] = system: Myzus persicae; assay: Example 48: aubergine plants treated against Myzus persicae; settings: on leaves, rate (g of a.i./ha): pymethrozine 0.0125, I-4 0.024
Experimental: In three replications, four aubergine plants (age about 7 months) of the cultivar “Hayabusa” are treated against Myzus persicae. The application is carried out using a motor-operated knapsack sprayer. Here, the active compound Example (I-4) (240 SC), in a tank mix with 0.1% a.i. of rapeseed oil methyl ester (500 EW), and the commercial standard pymethrozine (25 WP) are tested at the stated application rates. The application rate is 3000 l of water/ha.
Evaluation is carried out 7, 14, 21 and 29 days after the treatment by rating the kill of the animals on the leaves.

[3] = system: Planococcus spp.; assay: Example 29: vines treated against Planococcus spp.; settings: larvae on grapes, rate %/1: Dursban 0.096, I-4 0.0096
Experimental: In three replications, in plots of a size of 54 m^2, about 10-year-old vines of the cultivar “Napoleon” are treated against Planococcus spp. The application is carried out using a knapsack sprayer. Here, the active compound Example (I-4) (240 SC), in a tank mix with 0.1% a.i. of rapeseed oil methyl ester (500 EW), is tested against the commercial standard Dursban (480 EC), at the stated application rates. The application rate is 864 l of water/ha. Two treatments are carried out, at an interval of 19 days.
Evaluation is carried out 16 and 38 days after the second treatment by rating the kill of the larvae on the grapes.

[4] = system: Myzus persicae; assay: Example 49: potatoes treated against Myzus persicae; settings: live nymphs on leaves, Henderson and Tilten, g a.i./ha: Tamaron 585, I-4 48
Experimental: In four replications, plots of a size of about 7.5 m^2 with potatoes of the cultivar “BP 1” are treated against Myzus persicae. The application is carried out using a knapsack sprayer operated with pressurized air. Here, the active compound Example (I-4) (240 SC), in a tank mix with 0.2% a.i. of rapeseed oil methyl ester (500 EW), and the commercial standard Tamaron (585 SL) are tested at the stated application rates. Two applications are carried out, at an interval of 7 days. The application rate is 500 l of water/ha.
Evaluation is carried out 7 and 13 days after the first treatment by counting the live animals (nymphs) on the leaves. The efficacy is then calculated by calculating the effect on the population in percent according to Henderson and Tilten.

[5] = system: Macrosiphum euphorbiae; assay: Example 46: head lettuce treated against Macrosiphum euphorbiae; settings: nymphs on plants, g a.i./ha: endosulfan 1120, I-4 48
Experimental: In four replications, plots of a size of about 33 m^2 with head lettuce of the cultivar “PIC 714” are treated against Aulacorthum solani, Macrosiphum euphorbiae and Myzus persicae. The application is carried out using a tractor sprayer. Here, the active compound Example (I-4) (240 SC), in a tank mix with 0.2% a.i. of rapeseed oil methyl ester (500 EW), is tested against the commercial standard endosulfan (360 EC), at the stated application rates. The application rate is 187 l of water/ha. Two treatments are carried out, at an interval of 22 days.
Evaluation is carried out 8, 22, 30 and 40 days after the first treatment by rating the kill of the nymphs on the plants.

[6] = system: Quadraspidiotus perniciosus; assay: Example 21: almond tree treated against Quadraspidiotus perniciosus; settings: on branches, per metre crown height: Dursban 2240 g/ha, I-4 110 g/ha
Experimental: In four replications, an about 20-year-old almond tree of the cultivar “Non-Pareil” is treated against Quadraspidiotus perniciosus. The application is carried out using a high-pressure sprayer. Here, the active compound Example (I-4) (240 SC) in a tank mix with 0.125% a.i. of methylated seed oil (1000 EC) and the commercial standard Lorsban (480 EC) are tested at the stated application rates. The amount of spray liquor is 935 l/ha.
Evaluation is carried out 21, 42 and 63 days after the treatment by rating the kill of the animals on the branches.

[7] = system: Myzus persicae; assay: Example 54: bell pepper plants treated against Myzus persicae; settings: on leaves, g a.i./ha: Provado 50, I-4 48
Experimental: In four replications, plots of a size of about 8.4 m^2 with 36 11-week-old bell pepper plants of the cultivar “Casea dura ikeda” are treated against Myzus persicae. The application is carried out using a knapsack sprayer operated with pressurized air. Here, the active compound Example (I-4) (240 SC), in a tank mix with 0.2% a.i. of rapeseed oil methyl ester (500 EW), is tested against the commercial standard Provado (200 SC), at the stated application rates. The application rate is 600 l of water/ha. There are three applications, in each case at an interval of 7 d.
Evaluation is carried out 1, 7, and 14 days after the last treatment by rating the kill of the animals on the leaves.

[8] = system: Aonidiella aurantii; assay: Example 16: grapefruit tree treated against Aonidiella aurantii; settings: on fruits, per metre crown height: Dursban 6.01 pounds/acre, I-4 72 g/ha
Experimental: In four replications, an about 10-year-old grapefruit tree of the cultivar “Rio Red” is treated against Aonidiella aurantii. The application is carried out using a motor-operated barrow-mounted sprayer. Here, the active compound Example (I-4) (240 SC) and the commercial standard Dursban (480 EC) are tested at the stated application rates. The amount of spray liquor is 5.8 gallons per tree.
Evaluation is carried out 28, 59 and 90 days after the treatment by rating the kill of the animals on the fruits.

Q: `CCOC(=O)OC1=C(c2cc(C)ccc2Br)C(=O)NC12CCC(OC)CC2` (stereo not shown) [Example (I-2)] was tested. Which “Kill (%)” value [1] did it give?
A: Its value is 72%.

Q: `CCOC(=O)OC1=C(c2cc(C)ccc2C)C(=O)NC12CCC(OC)CC2` (stereo not shown) [Example (I-4)] was tested. Which “Kill (%) 7 d” value ([2]; 7 d after treatment) did it give?
A: Its value is 99.7%.

Q: What about the “Kill (%) 14 d” value ([2]; 14 d after treatment) of the same compound?
A: Its value is 99.7%.

Q: What about the “Kill (%) 21 d” value ([2]; 21 d after treatment) of the same compound?
A: Its value is 98%.

Q: What about the “Kill (%) 29 d” value ([2]; 29 d after treatment) of the same compound?
A: The value was 97%.

Q: What about the “Kill (%) 16 d” value ([3]; 16 d after second treatment) of the same compound?
A: The value was 94.4%.

Q: What about the “Kill (%) 38 d” value ([3]; 38 d after second treatment) of the same compound?
A: The value was 91.9%.

Q: What about the “Effect (%) 7 d” value ([4]; 7 d after first of two treatments) of the same compound?
A: The value was 67%.

Q: And the “Effect (%) 13 d” value ([4]; 13 d after first of two treatments)?
A: The value was 100%.

Q: And the “Kill (%) 8 d” value ([5]; 8 d after first of two treatments)?
A: Its value is 95%.

Q: And the “Kill (%) 22 d” value ([5]; 22 d after first of two treatments)?
A: The value was 100%.

Q: What about the “Kill (%) 30 d” value ([5]; 30 d after first of two treatments) of the same compound?
A: The value was 100%.

Q: And the “Kill (%) 40 d” value ([5]; 40 d after first of two treatments)?
A: Its value is 96%.

Q: And the “Kill (%) 21 d” value ([6]; 21 d after treatment)?
A: The value was 84.9%.

Q: What about the “Kill (%) 42 d” value ([6]; 42 d after treatment) of the same compound?
A: The value was 90%.

Q: What about the “Kill (%) 63 d” value ([6]; 63 d after treatment) of the same compound?
A: Its value is 94.6%.

Q: And the “Kill (%) 1 d” value ([7]; 1 d after last of three treatments)?
A: Its value is 99.1%.

Q: And the “Kill (%) 7 d” value ([7]; 7 d after last of three treatments)?
A: The value was 98.5%.

Q: And the “Kill (%) 14 d” value ([7]; 14 d after last of three treatments)?
A: Its value is 100%.

Q: And the “Kill (%) 28 d” value ([8]; 28 d after treatment)?
A: The value was 92.7%.

Q: What about the “Kill (%) 59 d” value ([8]; 59 d after treatment) of the same compound?
A: Its value is 100%.

Q: What about the “Kill (%) 90 d” value ([8]; 90 d after treatment) of the same compound?
A: Its value is 100%.
